Assay results from ChEMBL document CHEMBL3507680, “University of Dundee, Gates Library screen for HepG2 cell viability”.

Test: Human HepG2 cell viability assay in 384 well format
Type: toxicity, cell-based
Design: dose 125 nL, time 70.5 hour; concentration not given beside the values
Settings: HepG2 cells, read-out: Inhibition

SMILES	cytotoxicity at 70.5 h [%]
Cc1nc(CN(C)C2CCCN(c3cccnn3)C2)oc1C (centres undefined)	3.03
Cc1nnc2n1CCN(CCCS(=O)(=O)c1ccccc1)C2	0.781
CCOc1ncccc1CNC(=O)N1CCCC1c1ccsc1 (centres undefined)	-0.934
CN(C)c1ncccc1CNC(=O)N1CCCC1c1cccs1 (centres undefined)	1.79
CC(=O)Nc1nc(C(=O)N2CCCC2c2ccc(Br)cc2)cs1 (centres undefined)	3.74
Cc1ccc(CN2CCC(NC(=O)c3scnc3C)CC2)cc1	3.8
CC(NC(=O)c1cccs1)C(=O)Nc1cccnc1N1CCCCC1 (centres undefined)	2.11
CCn1cnnc1CNC(=O)NC(C)c1ccc(Cl)s1 (centres undefined)	-0.949
Cn1cnnc1C1CCN(C(=O)CCOc2ccc(Cl)cc2)CC1	19.2
Cc1ccc(OCCC(=O)N2CCC(c3nncn3C)CC2)c(C)c1	1.76
CC(C)(C)c1cc(NC(=O)CN2CCc3cncnc3C2)on1	3.44
Cc1cc(NC(=O)CN2CCc3cncnc3C2)no1	25.7
Cc1nc(C)n(CC2CCCN2CCC(=O)NC2CCCC2)n1 (centres undefined)	0.666
CS(=O)(=O)c1ccc(OCCCN2CCc3cncnc3C2)cc1	23.6
Cc1nc(C)n(CC2CCCCN2CC(=O)Nc2nnc(C)s2)n1 (centres undefined)	1.52
Cc1ccc2[nH]c(C(=O)N3CCCC3Cn3cccn3)cc2c1 (centres undefined)	4.08
CCOCC(O)CN1CCN(C(=O)c2cccc(CC#N)c2)CC1 (centres undefined)	-1.07
O=C(c1cc2c(F)cccc2[nH]1)N1CCCCC1Cn1cccn1 (centres undefined)	3.2
COc1ccc(C(O)CN2CC(n3nc(C)cc3C)C2)cc1 (centres undefined)	1.87
Cc1cc(C)n(C2CN(CC(O)c3cc(F)ccc3F)C2)n1 (centres undefined)	6.16

SMILES	cytotoxicity at 70.5 h [%]
Cc1ccc2cc(C(=O)N3CCCC3Cn3cccn3)[nH]c2c1 (centres undefined)	24.4
Cc1cc(C)n(C2CN(CC(O)c3ccc(S(C)(=O)=O)cc3)C2)n1 (centres undefined)	0.799
Cn1cc(CCNC(=O)NC2CCN(Cc3ccccn3)CC2)cn1	31.9
CC(C)c1noc(CCCC(=O)NCC2CCS(=O)(=O)C2)n1 (centres undefined)	22.3
COc1cccc(CNc2cc(N3CCCC3CO)ncn2)n1 (centres undefined)	-0.345
COc1c(C)cnc(CN2CCOC(CNc3cccnn3)C2)c1C (centres undefined)	3.14
CCN(Cc1ccc2c(c1)OCCO2)C(=O)NC(C)Cn1cccn1 (centres undefined)	0.788
O=C(Cc1ccc2c(c1)OCCO2)NC1CC1	0.821
O=C(Cc1ccc2c(c1)OCCO2)NC1CCCCC1	-1.15
CN(C)c1cc(CNC(=O)c2cc(F)ccc2F)ccn1	0.104
CN(C)c1cc(CNC(=O)c2c(F)cccc2F)ccn1	1.27
O=C(NCCCN1CCCCC1)c1n[nH]c(=O)c2ccccc12	25
CN(C)c1cc(CNC(=O)c2ccccc2S(C)(=O)=O)ccn1	0.46
O=C(Cc1ccc(F)c(Br)c1)NC1CCN(CC(F)F)CC1	3.07
CC(c1ccc(F)cc1)N1CCN(Cc2nccn2C)CC1 (centres undefined)	4.48
COc1cc(CNc2cc(N3CCCC3CO)ncn2)ccn1 (centres undefined)	24.7
COc1nc(C)ccc1CNc1cc(N2CCCC2CO)ncn1 (centres undefined)	7.33
OCC1CCCN1c1cc(NCc2cccc3cccnc23)ncn1 (centres undefined)	3.27
CC(C)c1nc(CN(C)C2CCN(CCS(C)(=O)=O)C2)no1 (centres undefined)	-4.02
CCc1nc(CN(C)C2CCN(CC(=O)N(C)C)C2)no1 (centres undefined)	-5.61

SMILES	cytotoxicity at 70.5 h [%]
Cc1ccc(NC2CCN(C(=O)c3cccnc3N(C)C)CC2)nn1	0.412
O=C(NCc1ccco1)N(CCCO)C1CCCc2ccccc21 (centres undefined)	-5.76
CCc1[nH]ncc1C(=O)N1CCCC(n2nc(C)cc2C)C1 (centres undefined)	-10.3
CN(CCC(=O)N1CCc2sccc2C1)Cc1cnn(C)c1	-2.72
CC(C)c1ncc2c(n1)CN(CCCc1nc3ccccc3o1)CC2	-3.98
CCc1ccc(C(N)c2cccc(S(C)(=O)=O)c2)cc1 (centres undefined)	-4.78
CCc1nc(C2CCCN2Cc2cnc(C)cn2)no1 (centres undefined)	-3.7
Cc1cnc(CN2CCCC2c2noc(C(C)C)n2)cn1 (centres undefined)	1.04
CN(CCC(=O)N1CCc2sccc2C1)Cc1cc(Br)cs1	-4.84
Cc1noc(C)c1CC(=O)N1CCc2sccc2C1	-4.18
COc1ccc(C)cc1C(C)NC(=O)CCn1cncn1 (centres undefined)	-5.61
Cc1cccc(-c2ccc(C(=O)NCC3CCOC3)c(=O)[nH]2)c1 (centres undefined)	-28.7
COCCNC(=O)C1(c2ccccc2C)CCOCC1	17.1
Cc1ccccc1CN1CCN(Cc2nccn2C)CC1	-8.12
CC(C)c1noc(C(C)N2CCN(CCN3CCCC3=O)CC2)n1 (centres undefined)	-11.8
Cn1ccnc1CN1CCN(CC(=O)NCC(F)(F)F)CC1	-10.6
CC(C)n1cc(CN2CCCN(C(=O)c3cc(Cl)c[nH]3)CC2)cn1	1.03
Cc1ccc(CNC(C)c2ccc3[nH]c(=O)[nH]c3c2)s1 (centres undefined)	-1.82
Cn1ncc2c(=O)[nH]c(N3CCN(C(=O)c4ccsc4)CC3)nc21	14.1
